Measurements taken from patent US11274111B2, “Arginase inhibitors and methods of use” (Merck Sharp & Dohme Corp., priority 2018, dated 2022).
Counter-ions that a name gives are not always drawn. Like-named read-outs stand apart in the source and are kept apart here.

Molecular target: T1, Arginase (Homo sapiens, UniProt P05089)
T1 construct: Arginase protein was recombinantly expressed in Escherichia coli
T1 sequence (P05089 1-322): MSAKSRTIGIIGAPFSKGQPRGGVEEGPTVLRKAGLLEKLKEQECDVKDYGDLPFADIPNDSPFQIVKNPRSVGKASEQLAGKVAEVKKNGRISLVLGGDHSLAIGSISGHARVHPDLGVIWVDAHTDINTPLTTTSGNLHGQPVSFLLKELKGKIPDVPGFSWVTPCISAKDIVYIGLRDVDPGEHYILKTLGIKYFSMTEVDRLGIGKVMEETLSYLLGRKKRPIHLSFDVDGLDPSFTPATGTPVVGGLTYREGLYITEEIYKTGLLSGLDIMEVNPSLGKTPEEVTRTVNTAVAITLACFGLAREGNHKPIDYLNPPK
Assay: Arginase Thioornithine Generating Assay (TOGA)
Assay type: biochemical
Settings: for IC50: recombinant arginase 1.88 nM, thioarginine substrate
Procedure: Arginase Thioornithine Generating Assay (TOGA)
Compounds were serially diluted in ten 3-fold steps in DMSO starting from 10 mM DMSO stocks. Compound dilutions or DMSO alone were then dispensed from the dilution plate into a Greiner black 384-well assay plate (catalog #781086) using an Echo 555 acoustic liquid handler (Labcyte).
Arginase protein was recombinantly expressed in Escherichia coli. Purified protein was then diluted in assay buffer (50 mM Tris pH 7.5, 50 mM NaCl, 1 mM manganese chloride, 0.05% bovine serum albumin to obtain a final Arginase concentration of 1.88 nM. Arginase solution (20 μL) or buffer alone (20 μL) were dispensed to wells of the assay plate using a BioRAPTR liquid dispenser (Beckman Coulter). Assay plates containing compound and arginase enzyme were incubated at room temperature for 30 minutes. Afterwards, 5 μL of 2.5 mM thioarginine (Cayman Chemicals) in assay buffer were added to each well of the assay plate using a BioRAPTR liquid dispenser. Plates were incubated at room temperature for 60 minutes and reactions were quenched by addition of 15 μL of 200 uM 7-Diethylamine-3-(4-maleimidophenyl)-4-methylcoumarin (Sigma Chemical) in 70% ethanol. Plates were briefly shaken to mix and the fluorescence was measured in an Spectramax plate reader (Molecular Devices) with a 410 nm excitation wavelength and an 490 nm emission wavelength.
Potencies were calculated by […] to the four parameter logistic IC50 equation.

[1] = Top Dose 10000 nM, read-out: Percent Inhibition at Top Dose

IC50 [nM] | inhibition at 10 µM [1] [%] | Compound | also measured
33 | 99.6 | CN[C@@H]1C[C@@H]2C[C@@](N)(C(=O)O)[C@@H](CCCB(O)O)[C@@H]2C1 [Example 51a, (1S,2S,3aR,5R,6aR)-2-amino-1-(3-boronopropyl)-5-(methylamino)octahydropentalene-2-carboxylic acid] | –
42.5 | – | (1S,2S,3aR,4S,5R,6aS)-2-amino-1-(3-boronopropyl)-4-fluoro-5-hydroxyoctahydropentalene-2-carboxylate [Example 54b] | Percent Inhibition at Top Dose (Top Dose 10000 nM): 100.1%
178 | 97.4 | N[C@@]1(C(=O)O)C[C@H]2C[C@H](O)C[C@H]2[C@@H]1CCCB(O)O [Example 44b, (1S,2S,3aS,5S,6aR)-2-amino-1-(3-boronopropyl)-5-hydroxyoctahydropentalene-2-carboxylic acid] | –
20.5 | – | (1S,2S,3aR,5S,6aR)-2-amino-1-(3-boronopropyl)-5-(methylamino)octahydropentalene-2-carboxylate [Example 51b] | Percent Inhibition at Top Dose (Top Dose 10000 nM): 98.67%
– | 101 | N[C@@]1(C(=O)O)C[C@H]2[C@H](F)[C@@H](O)C[C@H]2[C@@H]1CCCB(O)O [Example 54a, (1S,2S,3aR,4S,5S,6aS)-2-amino-1-(3-boronopropyl)-4-fluoro-5-hydroxyoctahydropentalene-2-carboxylate] | –

The next lines start with the compound.

Compound | IC50 [nM] | inhibition at 10 µM [1] [%] | also measured
(1S,2S,3aR,4S,5S,6aS)-2-amino-1-(3-boronopropyl)-4-fluoro-5-(methylamino)octahydropentalene-2-carboxylate [Example 55b] | 14.3 | – | Percent Inhibition at Top Dose (Top Dose 10000 nM): 101.7%
NC1(C(=O)O)c2cnccc2CC1CCCB(O)O (stereo not drawn) [Example 30, 7-amino-6-(3-boronopropyl)-6,7-dihydro-5H-cyclopenta[c]pyridine-7-carboxylic acid] | – | 87.3 | –
NC1(C(=O)O)CN2CCNC[C@H]2C1CCCB(O)O (stereo partly drawn) [Example 38a, (8aR)-7-amino-8-(3-boronopropyl)octahydropyrrolo[1,2-a]pyrazine-7-carboxylic acid] | – | 63 | –
NCCN1C[C@@H]2C[C@@](N)(C(=O)O)[C@@H](CCCB(O)O)[C@@H]2C1 [Example 9, (3aR,4S,5S,6aR)-5-amino-2-(2-aminoethyl)-4-(3-boronopropyl)octahydrocyclopenta[c]pyrrole-5-carboxylic acid] | – | 98 | –
N[C@]1(C(=O)O)[C@H](CCCB(O)O)C[C@H]2C[C@H]21 [Example 36b, (1R,2R,3R,5R)-2-amino-3-(3-boronopropyl)bicyclo[3.1.0]hexane-2-carboxylic acid] | – | 47.4 | –
CN1CC[C@@H]2[C@H]1C[C@@H](CCCB(O)O)C2(N)C(=O)O (relative stereo) [Example 32, rel-(3aR,5R,6aR)-4-amino-5-(3-boronopropyl)-1-methyloctahydrocyclopenta[b]pyrrole-4-carboxylic acid] | – | 97.2 | –
C[C@H](N)C(=O)N1CCCC12CCC(N)(C(=O)O)C(CCCB(O)O)C2 (stereo partly drawn) [Example 26, 8-amino-1-((S)-2-aminopropanoyl)-7-(3-boronopropyl)-1-azaspiro[4.5]decane-8-carboxylic acid hydrochloride] | – | – | inhibition at 10 µM (read-out: Percent Inhibition at Top Dose, Top Dose 10000 nM): 45.2%
CN(C)CC(=O)N1C[C@@H]2CC(N)(C(=O)O)C(CCCB(O)O)[C@@H]2C1 (stereo in doubt) [Example 19, 5-amino-4-(3-boronopropyl)-2-(2-(dimethylamino)acetyl)octahydrocyclopenta[c]pyrrole-5-carboxylic acid] | – | – | inhibition at 16 µM (Top Dose 16000 nM, read-out: Percent Inhibition at Top Dose): 82.7%
N[C@H]1C[C@@H]2C[C@@](N)(C(=O)O)[C@@H](CCCB(O)O)[C@@H]2C1 [Example 45, (1S,2S,3aR,5S,6aR)-2,5-diamino-1-(3-boronopropyl)octahydropentalene-2-carboxylic acid] | – | 99.4 | –
N[C@@]1(C(=O)O)C[C@H]2C[C@@H](NCC(F)(F)F)C[C@H]2[C@@H]1CCCB(O)O [Example 49, (1S,2S,3aR,5R,6aR)-2-amino-1-(3-boronopropyl)-5-((2,2,2-trifluoroethyl)amino)octahydropentalene-2-carboxylic acid] | – | 85.9 | –
CC(=O)N1C[C@@H]2C[C@@](N)(C(=O)O)[C@@H](CCCB(O)O)[C@@H]2C1 [Example 7, (3aR,4S,5S,6aR)-2-acetyl-5-amino-4-(3-boronopropyl)octahydrocyclopenta[c]pyrrole-5-carboxylic acid] | – | 72.8 | –
CC(C)[C@H](N)C(=O)N[C@H]1C[C@@H]2C[C@@](N)(C(=O)O)[C@@H](CCCB(O)O)[C@@H]2C1 [Example 47, (1S,2S,3aR,5S,6aR)-2-amino-5-((S)-2-amino-3-methylbutanamido)-1-(3-boronopropyl)octahydropentalene-2-carboxylic acid] | 522 | 94.2 | –
N[C@@H](CO)C(=O)N1C[C@@H]2C[C@@](N)(C(=O)O)[C@@H](CCCB(O)O)[C@@H]2C1 [Example 6, (3aR,4S,5S,6aR)-2-(L-seryl)-5-amino-4-(3-boronopropyl)octahydrocyclopenta[c]pyrrole-5-carboxylic acid] | 179 | 94.2 | –
CN[C@@]1(C(=O)O)C[C@H]2CNC[C@H]2[C@@H]1CCCB(O)O [Example 22, (3aR,4S,5S,6aR)-4-(3-boronopropyl)-5-(methylamino)octahydrocyclopenta[c]pyrrole-5-carboxylic acid] | – | 93.9 | –
CC1NC[C@@H]2[C@H]1CC(N)(C(=O)O)[C@H]2CCCB(O)O (stereo partly drawn) [Example 31a, (3aR,4S,6aR)-5-amino-4-(3-boronopropyl)-1-methyloctahydrocyclopenta[c]pyrrole-5-carboxylic acid] | – | 89.9 | –
N[C@@]1(C(=O)O)C[C@H]2CN(CC(F)(F)F)C[C@H]2[C@@H]1CCCB(O)O [Example 10, (3aR,4S,5S,6aR)-5-amino-4-(3-boronopropyl)-2-(2,2,2-trifluoroethyl)octahydrocyclopenta[c]pyrrole-5-carboxylic acid] | 5270 | 55.9 | –
CC(C)[C@H](N)C(=O)N1C[C@@H]2C[C@@](N)(C(=O)O)[C@@H](CCCB(O)O)[C@@H]2C1 [Example 42, (3aR,4S,5S,6aR)-2-(L-valyl)-5-amino-4-(3-boronopropyl)octahydrocyclopenta[c]pyrrole-5-carboxylic acid] | 52 | 98 | –
NC1(C(=O)O)CC2(CCNC2)OC1CCCB(O)O (stereo not drawn) [Example 41, 3-amino-2-(3-boronopropyl)-1-oxa-7-azaspiro[4.4]nonane-3-carboxylic acid] | – | 97.7 | –
NCC(=O)N1C[C@@H]2C[C@@](N)(C(=O)O)[C@@H](CCCB(O)O)[C@@H]2C1 [Example 5, (3aR,4S,5S,6aR)-5-amino-4-(3-boronopropyl)-2-glycyloctahydrocyclopenta[c]pyrrole-5-carboxylic acid] | 160 | 95.1 | –
(1S,2S,3aR,4S,5R,6aS)-2-amino-1-(3-boronopropyl)-4-fluoro-5-(methylamino)octahydropentalene-2-carboxylate [Example 55a] | 23.2 | – | Percent Inhibition at Top Dose (Top Dose 10000 nM): 103.1%
N[C@@]1(C(=O)O)C[C@H]2C[C@@H](NCCO)C[C@H]2[C@@H]1CCCB(O)O [Example 48, (1S,2S,3aR,5R,6aR)-2-amino-1-(3-boronopropyl)-5-((2-hydroxyethyl)amino)octahydropentalene-2-carboxylic acid] | – | 98.4 | –
NC1(C(=O)O)C(CCCB(O)O)C[C@H]2CNC[C@H]21 (mixture of isomers) [Example 28, rac-(3aS,6aR)-4-amino-5-(3-boronopropyl)octahydrocyclopenta[c]pyrrole-4-carboxylic acid] | – | 90.4 | –
NCC(=O)N1C[C@@H]2CC(N)(C(=O)O)C(CCCB(O)O)[C@@H]2C1 (stereo in doubt) [Example 16, 5-amino-2-(2-aminoacetyl)-4-(3-boronopropyl)octahydrocyclopenta[c]pyrrole-5-carboxylic acid] | – | 97.9 | –
